Data published in publication PMC4603705, “A bioinspired peptide scaffold with high antibiotic activity and low in vivo toxicity” (Scientific Reports, 2015).
≈ marks a conversion by molar mass, not a printed value. Blank lines part the entries; values can stand above or below the compound they belong to. Bridge positions count the residues as written; N and C are the ends. Square brackets hold non-standard residues; d marks the D form. Peptide text beside a SMILES is read from it. * marks the point of attachment. Lauroyl = CCCCCCCCCCCC(=O)*; Nonanoyl = CCCCCCCCC(=O)*; Nle = CCCC[C@H](N)C(=O)O; Dab = NCC[C@H](N)C(=O)O

Experiments:
[1] = system: PC12 (treated with NGF, neuronal model); assay: In vitro cytotoxicity (WST-1 cell viability), PC12; assay type: cell-based; conditions: WST-1, NGF treated
Experimental: (§1) Cell viability assays were performed using the tetrazolium dye WST1 (similar to MTT) on human dermal fibroblasts (3T3 hDF), MDCK (renal model, Madin-Darby canine kidney cells) and PC12 (NGF treated; neuronal model) cell lines and followed standard protocols. Briefly, cells were seeded into 96-well plates, after incubation for 24 h, the medium was replaced with fresh cell culture medium containing the products (range 0-1.2 mg/mL). Negative and positive controls consisted of plates in the absence of the test compound and plates with sodium dodecyl sulfate (0.02% w/v), respectively. Cell viability was assayed with the tetrazolium salt (4-[3-(4- iodophenyl)-2-(4-nitrophenyl)-2H-5-tetrazolio]-1,3-benzene disulfonate) (WST-1). The relative WST-1 absorbance was recorded at 450 nm.
(§2) The products at concentrations ranging from 0 to 1.2 mg/mL were tested (triplicate) and in two independent experiments. The statistical analysis of the data was performed by using non-linear regression (curve-fit) and the model used agreed with the four parameter logistic model (4PL), also called the Hill-Slope model (sigmoid model), with the following equation: […]
(§3) where y is the percent activity and x is the corresponding concentration. The quantities determined where the point estimate IC50 (Half maximal (50%) inhibitory concentration (IC) of a substance, see Table II), the corresponding 95% confidence interval and R^2 (measures the goodness of fit) are shown in the Supplementary Table S2.

[2] = system: E. coli ATTC 8739; assay type: cell-based, Escherichia coli; conditions: ATTC 8739
Experimental: (§4) MICs were measured after 18–20 h of incubation in sterile 96-well plates (Corning Costar 3598 microtiter plates) in Mueller Hinton Broth (MHB) culture medium, (Difco, USA), according to well known in vitro protocols. Bacterial strains in Table 1 were: P. aeruginosa ATTC 9027, E. coli ATTC 8739, S. aureus ATTC 6538, and E. faecalis ATTC 29212. MICs shown in table 4 were performed by Mary Conrad at Cubist Pharmaceuticals (Lexington, MA) in non-binding surface plates.

[3] = system: Madine-Darby canine kidney cells (MDCK, renal model); assay: In vitro cytotoxicity (WST-1 cell viability), MDCK; assay type: cell-based; conditions: for IC50 MDCK Exp1: Supplementary Table S2, experiment 1; for IC50 MDCK Exp2: Supplementary Table S2, experiment 2; for IC50 MDCK: cytotoxicity, WST-1
Experimental: as §1, §2, §3

[4] = system: P. aeruginosa ATTC 9027; assay type: cell-based, Pseudomonas aeruginosa; conditions: ATTC 9027
Experimental: as §4

[5] = system: human dermic fibroblasts (hDF); assay: In vitro cytotoxicity (WST-1 cell viability), hDF; assay type: cell-based; conditions: for IC50 hDF Exp1: Supplementary Table S2, experiment 1; for IC50 hDF Exp2: Supplementary Table S2, experiment 2; for IC50 hDF: cytotoxicity, WST-1
Experimental: as §1, §2, §3

[6] = system: S. aureus ATTC 6538; assay: microbe, parasite or virus in culture; assay type: cell-based, Staphylococcus aureus; conditions: ATTC 6538
Experimental: as §4

[7] = system: S. aureus; assay: microbe, parasite or virus in culture; assay type: cell-based, Staphylococcus aureus
Experimental: as §4

[8] = system: E. faecalis ATTC 29212; assay: microbe, parasite or virus in culture; assay type: cell-based, Enterococcus faecalis; conditions: ATTC 29212
Experimental: Lipopeptide 39 was chosen for this, as it is known that long fatty acids tend to favor activity against Gram-positive bacteria in polymyxin analogs. […] In summary, new broad-spectrum antimicrobial lipopeptides were achieved.
as §4

[9] = system: P. aeruginosa
Experimental: (§5) Strains of E. coli and P. aeruginosa with resistance to quinolones and carbapenems as well as multi-drug-resistant bacteria were tested.
as §4

[10] = system: E. coli
Experimental: as §5, §4

[11] = resistant to nalidixic acid, cotrimoxazole and ampicillin

Compound: CCCCCCCCC(=O)N[C@@H](CCCNC(=N)N)C(=O)N[C@H](C(=O)N[C@@H](CCN)C(=O)N[C@H]1CSSC[C@@H](C(N)=O)NC(=O)[C@H](CCN)NC(=O)[C@H](CCCNC(=N)N)NC(=O)[C@H](CC(C)C)NC(=O)[C@@H](Cc2ccccc2)NC(=O)[C@H](CCN)NC1=O)[C@@H](C)O [Analog 5, nonanoyl-Arg-Thr-Dab-Cys-Dab-Phe-Leu-Arg-Dab-Cys] (Nonanoyl-RT[Dab]C[Dab][dF]LR[Dab]C-NH2; disulfide 4-10)
- IC50 PC12 [1]: 629 µg/mL (≈ 471 µM)
- MIC E. coli [2]: 8 µg/mL (≈ 5.99 µM)
- IC50 MDCK Exp1 [3]: 541 µg/mL (≈ 405 µM)
- IC50 MDCK Exp2 [3]: 554 µg/mL (≈ 415 µM)
- IC50 MDCK [3]: 548 µg/mL (≈ 410 µM)
- MIC P. aeruginosa [4]: 16 µg/mL (≈ 12 µM)
- IC50 hDF Exp1 [5]: 555 µg/mL (≈ 416 µM)
- IC50 hDF Exp2 [5]: 513 µg/mL (≈ 384 µM)
- IC50 hDF [5]: 534 µg/mL (≈ 400 µM)

Compound: CCCCCCCCCCCC(=O)N[C@@H](CCN)C(=O)N[C@H](C(=O)N[C@@H](CCN)C(=O)N[C@H]1CSSC[C@H](C(N)=O)NC(=O)[C@H](CCN)NC(=O)[C@H](CCN)NC(=O)[C@H](CCCC)NC(=O)[C@@H](Cc2ccccc2)NC(=O)[C@H](CCN)NC1=O)[C@@H](C)O [Analog 39, dodecanoyl-Dab-Thr-Dab-Cys-Dab-Phe-Nle-Dab-Dab-Cys] (Lauroyl-[Dab]T[Dab]C[Dab][dF][Nle][Dab][Dab][dC]-NH2; disulfide 4-10)
- MIC E. coli [2]: 4 µg/mL (≈ 3.16 µM)
- MIC S. aureus DR, MR SAU.1616 [7]: 8 µg/mL (≈ 6.32 µM)
- MIC S. aureus DR, MS SAU.278 [7]: 2 µg/mL (≈ 1.58 µM)
- MIC S. aureus MR ATTC 43300 [7]: 1 µg/mL (≈ 0.79 µM)
- MIC S. aureus MR SAU.1118 [7]: 1 µg/mL (≈ 0.79 µM)
- MIC S. aureus MS ATTC 29213 [7]: 1 µg/mL (≈ 0.79 µM)
- MIC P. aeruginosa [4]: 1 µg/mL (≈ 0.79 µM)
- MIC E. faecalis Wild type ATTC 29212 [8]: 2 to 4 µg/mL
- MIC P. aeruginosa 38a [9]: 1 µg/mL (≈ 0.79 µM)
- MIC P. aeruginosa 40b [9]: 2 µg/mL (≈ 1.58 µM)
- MIC E. coli NDM-1 ([10]; highly-resistant, New Delhi metallo-beta-lactamase gene): 0.5 µg/mL (≈ 0.395 µM)
- MIC E. coli VAL 5 ([10]; resistant to nalidixic acid): 0.5 µg/mL (≈ 0.395 µM)
- MIC E. coli MAC 21a [10, 11]: 1 µg/mL (≈ 0.79 µM)
- MIC E. coli VAL 10 [10, 11]: 0.5 µg/mL (≈ 0.395 µM)

Compound: CCCCCCCCCC(=O)N[C@@H](Cc1c[nH]c2ccccc12)C(=O)N[C@H](CC(N)=O)C(=O)N[C@@H](CC(=O)O)C(=O)N[C@@H]1C(=O)NCC(=O)N[C@@H](CCCN)C(=O)N[C@@H](CC(=O)O)C(=O)N[C@H](C)C(=O)N[C@@H](CC(=O)O)C(=O)NCC(=O)N[C@H](CO)C(=O)N[C@@H]([C@H](C)CC(=O)O)C(=O)N[C@@H](CC(=O)c2ccccc2N)C(=O)O[C@@H]1C [Daptomycin]
- MIC S. aureus DR, MR SAU.1616 [7]: 16 µg/mL (≈ 9.87 µM)
- MIC S. aureus DR, MS SAU.278 [7]: 8 µg/mL (≈ 4.94 µM)
- MIC S. aureus MR ATTC 43300 [7]: 0.5 µg/mL (≈ 0.309 µM)
- MIC S. aureus MR SAU.1118 [7]: 0.5 µg/mL (≈ 0.309 µM)
- MIC S. aureus MS ATTC 29213 [7]: 0.5 µg/mL (≈ 0.309 µM)
- MIC S. aureus [6]: 1 µg/mL (≈ 0.617 µM)
- MIC E. faecalis Wild type ATTC 29212 [8]: 2 to 4 µg/mL

The next lines start with results.

- MIC E. coli [2]: 4 µg/mL (≈ 2.87 µM)
- MIC P. aeruginosa [4]: 8 µg/mL (≈ 5.75 µM)
Compound: CCCCCCCCC(=O)N[C@@H](CCCNC(=N)N)C(=O)N[C@H](C(=O)N[C@@H](CCCNC(=N)N)C(=O)N[C@H]1CSSC[C@@H](C(N)=O)NC(=O)[C@H](CCN)NC(=O)[C@H](CCCNC(=N)N)NC(=O)[C@H](CC(C)C)NC(=O)[C@@H](Cc2ccccc2)NC(=O)[C@H](CCN)NC1=O)[C@@H](C)O [Analog 8, nonanoyl-Arg-Thr-Arg-Cys-Dab-Phe-Leu-Arg-Dab-Cys] (Nonanoyl-RTRC[Dab][dF]LR[Dab]C-NH2; disulfide 4-10)
- IC50 PC12 [1]: 595 µg/mL (≈ 428 µM)
- IC50 MDCK Exp1 [3]: 417 µg/mL (≈ 299 µM)
- IC50 MDCK Exp2 [3]: 528 µg/mL (≈ 379 µM)
- IC50 MDCK [3]: 472 µg/mL (≈ 339 µM)
- IC50 hDF Exp1 [5]: 421 µg/mL (≈ 302 µM)
- IC50 hDF Exp2 [5]: 502 µg/mL (≈ 361 µM)
- IC50 hDF [5]: 461 µg/mL (≈ 331 µM)

- MIC E. coli [2]: 8 to 16 µg/mL
- MIC S. aureus [6]: 8 µg/mL (≈ 5.32 µM)
- MIC P. aeruginosa [4]: 16 to 32 µg/mL
Compound: CCCCCCCCC(=O)N[C@@H](CCCNC(=N)N)C(=O)N[C@H](C(=O)N[C@@H](CCCNC(=N)N)C(=O)N[C@H]1CSSC[C@@H](C(N)=O)NC(=O)[C@H](CCCNC(=N)N)NC(=O)[C@H](CCCNC(=N)N)NC(=O)[C@H](CC(C)C)NC(=O)[C@@H](Cc2ccccc2)NC(=O)[C@H](CCCNC(=N)N)NC1=O)[C@@H](C)O [Analog 12] (Nonanoyl-RTRCR[dF]LRRC-NH2; disulfide 4-10)
- IC50 PC12 [1]: 225 µg/mL (≈ 150 µM)
- IC50 MDCK Exp1 [3]: 233 µg/mL (≈ 155 µM)
- IC50 MDCK Exp2 [3]: 147 µg/mL (≈ 97.7 µM)
- IC50 MDCK [3]: 190 µg/mL (≈ 126 µM)
- IC50 hDF Exp1 [5]: 147 µg/mL (≈ 97.7 µM)
- IC50 hDF Exp2 [5]: 181 µg/mL (≈ 120 µM)
- IC50 hDF [5]: 164 µg/mL (≈ 109 µM)
